Patent US9433608B2 (priority 2013, dated 2016)

Experiments:
Settings in all cases: in vivo
[1] = tested on: 12 mm right basal ganglia infarct (acute lacunar infarct); design: species or system human
[2] = tested on: subacute temporal lobe infarct with encephalomalacia; design: species or system human
[3] = tested on: TIA (transient ischemic attack) symptoms

Row | SMILES | function after treatment [1] | leg weakness, expansion of the infarct, symptoms [1] | mental clarity noted by the patient [2] | vision in the right hemifield [2] | clinical state the next day [3] | effect on penumbra of injury [3] | sedation (side effect) on the second night [3] | swallowing on the second night [3]
1 | CC12CC3CC(C)(C1)CC(N)(C3)C2 [memantine, 3,5-dimethyladamantan-1-amine] | returned to pre-stroke function | the weakness resolved and there was no further expansion of the infarct or worsening of symptoms | clearing of fogginess | unable to regain vision in the right hemifield |  |  |  | 
2 | CN1C(=O)CN=C(c2ccccc2)c2cc(Cl)ccc21 [diazepam, 7-chloro-1,3-dihydro-1-methyl-5-phenyl-1,4-benzodiazepin-2(3H)-one] | returned to pre-stroke function | the weakness resolved and there was no further expansion of the infarct or worsening of symptoms | clearing of fogginess | unable to regain vision in the right hemifield |  |  |  | 
3 | Cc1ncc2n1-c1ccc(Cl)cc1C(c1ccccc1F)=NC2 [midazolam, 8-chloro-6-(2-fluorophenyl)-1-methyl-4H-imidazo[1,5a][1,4]benzodiazepine] |  |  |  |  | sitting talking to relatives, mentating better but could not swallow their own saliva | preventing expansion of the penumbra of injury | drowsy | could swallow their own saliva
